Results on twelve compounds are retold here after patent US9376433B2, “(AZA-)isoquinolinone derivatives” (MERCK PATENT GMBH, priority 2012, dated 2016).

Usually IC50 stands for the concentration that gives 50% inhibition.

The structures appear in SMILES notation.

Experiment [1] deals with T1, TNKS1 (Homo sapiens, UniProt O95271).
T1 construct: GST-tagged Tnks-1 (1023-1327 aa, prepared in-house); made in house
As to the kind of experiment: TNKS1 activity ELISA (autoparsylation assay). In kind it is biochemical. Particulars: GST-tagged Tnks-1 (1023-1327 aa), luminescence. How it is done: Description of the TNKS1 and TNKS2 ELISA Assay
Biochemical activity testing of TNKS 1 and 2: activity ELISA (Autoparsylation assay)
For analysis of autoparsylation activity of TNKS 1 and 2 an activity ELISA iss performed: In the first step GST tagged TNKS is captured on a Glutathione coated plate. Then the activity assay with biotinylated NAD is performed in the absence/presence of the compounds. During the enzymatic reaction GST tagged TNKS transfers biotinylated ADP-ribose to itself from biotinylated NAD as co-substrate. For the detection streptavidin-HRP conjugate is added that binds to the biotinylated TNKS and is thereby captured to the plates. The amount of biotinylated resp. autoparsylated TNKS is detected with a luminescence substrate for HRP. The level of the luminescence signal correlats directly with the amount of autoparsylated TNKS and therefore with activity of TNKS.
The acitivity ELISA is performed in 384 well Glutathione coated microtiter plates (Express capture Glutathione coated plate, Biocat, Heidelberg, Germany). The plates are pre-equilibrated with PBS. Then the plates are incubated with 50 μl 20 ng/well GST-tagged Tnks-1 (1023-1327 aa, prepared in-house), respectively GST-tagged Tnks-2 (873-1166 aa, prepared in-house) in assay buffer (50 mM HEPES, 4 mM Mg-chloride, 0.05% Pluronic F-68, 2 mM DTT, pH 7.7) overnight at 4° C. The plates are washed 3 times with PBS-Tween-20. The wells are blocked by incubation at room temperature for 20 minutes with 50 μl blocking buffer (PBS, 0.05% Tween-20, 0.5% BSA). Afterwards the plates are washed 3 times with PBS-Tween-20. The enzymatic reaction is performed in 50 μl reaction solution (50 mM HEPES, 4 mM Mg-chloride, 0.05% Pluronic F-68, 1.4 mM DTT, 0.5% DMSO, pH 7.7) with10 μM bio-NAD (Biolog, Life science Inst., Bremen, Germany) as co-substrate in the absence or presence of the test compound (10 dilution concentrations) for 1 hour at 30° C. The reaction is stopped by 3 times washing with PBS-Tween-20. For the detection 50 μl of 20 ng/μl Streptavidin, HRP conjugate (MoBiTec, Göttingen, Germany) in PBS/0.05% Tween-20/0.01% BSA are added and the plates are incubated for 30 minutes at room temperature. After three times washing with PBS-Tween-20 50 μl of SuperSignal ELISA Femto Maximum sensitivity substrate solution (ThermoFisherScientific (Pierce), Bonn, Germany) are added. Following a 1 minute incubation at room temperature luminescence signals are measured with an Envision multimode reader (Perkin Elmer LAS Germany GmbH) at 700 nm. The full value used is the inhibitor-free reaction. The pharmacological zero value used is XAV-939 (Tocris) in a final concentration of 5 μM. The inhibitory values (IC50) are determined using either the program Symyx Assay Explorer® or Condosseo® from GeneData.
On the technique in general: ELISA stands for enzyme-linked immunosorbent assay.

Experiment [2] concerns the target T2, Tankyrase-2 (Homo sapiens, UniProt Q9H2K2).
T2 construct: GST-tagged Tankyrase-2 (873-1166 aa)
The experiment is described as follows: Tankyrase 2 autoparsylation assay (HTRF enzyme assay). It counts as biochemical. The conditions noted are these: GST-tagged Tankyrase-2 (873-1166 aa). The protocol: (§1) Biochemical activity testing of Tankyrase 1 and 2: Autoparsylation assay
(§2) The autoparsylation assay is run in two steps: the enzymatic reaction in which GST-tagged Tankyrase-1, resp Tankyrase-2 transferred biotinylated ADP-ribose to itself from biotinylated NAD as co-substrate and the detection reaction where a time resolved FRET between cryptate labelled anti-GST bound to the GST tag of the enzyme and Xlent® labelled-streptavidin bound the biotin-parsylation residue is analysed. The autoparsylation activity was detectable directly via the increase in HTRF signal.
(§3) The autoparsylation assay is performed as 384-well HTRF® (Cisbio, Codolet, France) assay format in Greiner low volume nb 384-well microtiter plates and is used for high throughput screen. 250 nM GST-tagged Tankyrase-1 (1023-1327 aa), respectively about 250 nM GST-tagged Tankyrase-2 (873-1166 aa) and 5 μM bio-NAD (Biolog, Life science Inst., Bremen, Germany) as co-substrate are incubated in a total volume of 5 μl (50 mM HEPES, 4 mM Mg-chloride, 0.05% Pluronic F-68, 1.4 mM DTT, 0.5% DMSO, pH 7.7) in the absence or presence of the test compound (10 dilution concentrations) for 90 min at 30° C. The reaction is stopped by the addition of 1 μl 50 mM EDTA solution. 2 μl of the detection solution (1.6 μM SA-Xlent® (Cisbio, Codolet, France), 7.4 nM Anti-GST-K® (Eu-labelled anti-GST, Cisbio, Codolet, France) in 50 mM HEPES, 800 mM KF, 0.1% BSA, 20 mM EDTA, 0.1% CHAPS, pH 7.0) are added. After 1 h incubation at room temperature the HTRF is measured with an Envision multimode reader (Perkin Elmer LAS Germany GmbH) at excitation wavelength 340 nm (laser mode) and emission wavelengths 615 nm and 665 nm. The ratio of the emission signals is determined. The full value used is the inhibitor-free reaction. The pharmacological zero value used is XAV-939 (Tocris) in a final concentration of 5 μM. The inhibitory values (IC50) are determined using either the program Symyx Assay Explorer® or Condosseo® from GeneData.
Background: Time-resolved FRET reads energy transfer from a long-lived donor to a nearby acceptor.

Experiment [3] has as its system tankyrase 1/2. The experiment is described as follows: Cellular inhibition of tankyrase: increase of Axin2 level in DLD1 cells (Luminex). In kind it is cell-based. Particulars: DLD1 colon carcinoma cells, 24 hours, read-out: EC50 tankyrase 1/2 (cell assay). The protocol:
Measurement of Cellular Inhibition of Tankyrase
Since Tankyrases have been described to modulate cellular level of Axin2 (Huang et al., 2009; Nature) the increase of Axin2 level is used as read-out for determination of cellular inhibition of Tankyrases in a Luminex based assay.
Cells of the colon carcinoma cell line DLD1 are plated in 96 well plates with 1.5×10^4 cells per well. Next day, cells are treated with a serial dilution of test compound in seven steps as triplicates with a final DMSO concentration of 0.3%. After 24 hours, cells are lysed in lysis buffer (20 mM Tris/HCl pH 8.0, 150 mM NaCl, 1% NP40, 10% Glycerol) and lysates are cleared by centrifugation through a 96 well filter plate (0.65 μm). Axin2 protein is isolated from cell lysates by incubation with a monoclonal anti-Axin2 antibody (R&D Systems #MAB6078) that is bound to fluorescent carboxybeads. Then, bound Axin2 is specifically detected with a polyclonal anti-Axin2 antibody (Cell Signaling #2151) and an appropriate PE-fluorescent secondary antibody. The amount of isolated Axin2 protein is determined in a Luminex^200 machine (Luminex Corporation) according to the manufacturer's instruction by counting 100 events per well. Inhibition of Tankyrase by test compounds results in higher levels of Axin2 which directly correlates with an increase of detectable fluorescence. As controls cells are treated with solvent alone (neutral control) and with a Tankyrase reference inhibitor IWR-2 (3E-06 M) which refers as control for maximum increase of Axin2. For analysis, the obtained data are normalized against the untreated solvent control and fitted for determination of the EC50 values using the Assay Explorer software (Accelrys).

Experiment [4] addresses T3, Tankyrase-1 (Homo sapiens, UniProt O95271).
T3 construct: GST-tagged Tankyrase-1 (1023-1327 aa)
The experiment is described as follows: Tankyrase 1 autoparsylation assay (HTRF enzyme assay). The conditions noted are these: GST-tagged Tankyrase-1 (1023-1327 aa). It counts as biochemical. How it is done:
as §1, §2, §3

The subject of experiment [5] is DLD-1-cancer cells. The conditions noted are these: DLD-1 cells; Huang et al., 2009, Nature; cited from earlier work.

T2 sequence (Q9H2K2 873-1166): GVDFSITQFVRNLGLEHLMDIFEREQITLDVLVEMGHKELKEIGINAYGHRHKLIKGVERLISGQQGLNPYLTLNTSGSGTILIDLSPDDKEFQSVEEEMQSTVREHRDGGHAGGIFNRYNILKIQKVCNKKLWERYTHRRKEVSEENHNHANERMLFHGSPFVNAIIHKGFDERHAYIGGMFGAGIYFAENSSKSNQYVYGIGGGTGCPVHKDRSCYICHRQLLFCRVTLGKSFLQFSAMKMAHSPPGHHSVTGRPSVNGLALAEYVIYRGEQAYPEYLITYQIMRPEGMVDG
T3 sequence (O95271 1023-1327): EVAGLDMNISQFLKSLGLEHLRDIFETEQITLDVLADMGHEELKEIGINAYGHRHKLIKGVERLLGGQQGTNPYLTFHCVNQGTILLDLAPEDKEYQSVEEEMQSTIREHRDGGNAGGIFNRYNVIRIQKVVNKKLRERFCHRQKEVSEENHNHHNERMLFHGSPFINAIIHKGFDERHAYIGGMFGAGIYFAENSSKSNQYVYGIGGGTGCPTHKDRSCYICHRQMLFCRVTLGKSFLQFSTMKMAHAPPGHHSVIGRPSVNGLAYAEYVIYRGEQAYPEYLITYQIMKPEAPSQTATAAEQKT
T1 sequence (O95271 1023-1327): as above

Take `CC(C)(C)c1ccc(-c2cc3cnccc3c(=O)[nH]2)cc1` [Compound A1, 3-(4-tert-butyl-phenyl)-2H-[2,6]naphthyridin-1-one]: the IC50 in experiment [1] was under 300 nM; in experiment [2] it was 300 to 3000 nM; in experiment [4], under 300 nM. Moreover, the EC50 in experiment [3] was under 300 nM.

For `COC(=O)c1ccc(-c2cc3ccccc3c(=O)[nH]2)cc1` [Compound A2, 4-(1-oxo-1,2-dihydro-isoquinolin-3-yl)-benzoic acid methyl ester], the IC50 in experiment [2] and in experiment [4] was under 300 nM each time. Moreover, in experiment [3], the EC50 was 300 to 3000 nM.

Take `COC(=O)c1ccc(-c2cc3ccc(F)cc3c(=O)[nH]2)cc1` [Compound A4, 4-(7-Fluoro-1-oxo-1,2-dihydro-isoquinolin-3-yl)-benzoic acid methyl ester]: the IC50 in experiment [2] and in experiment [4] was 300 to 3000 nM in each case. The EC50 in experiment [3] was 300 to 3000 nM.

In the case of `Cc1ccc2cc(-c3ccc(C(C)(C)O)cc3)[nH]c(=O)c2c1` [Compound A7, 3-[4-(1-hydroxy-1-methyl-ethyl)-phenyl]-7-methyl-2H-isoquinolin-1-one], the IC50 in experiment [2] and in experiment [4] was 300 to 3000 nM in each case. Moreover, in experiment [3], the EC50 lay within 300 to 3000 nM.

As for `O=c1[nH]c(-c2ccc(CO)cc2)cc2ccccc12` [Compound A8, 3-(4-hydroxymethyl-phenyl)-2H-isoquinolin-1-one], the IC50 is 300 to 3000 nM in experiment [2] and under 300 nM in experiment [4]. Also, the EC50 in experiment [3] was under 300 nM.

As to `CC(C)(F)c1ccc(-c2cc3ccccc3c(=O)[nH]2)cc1` [Compound A13, 3-[4-(1-fluoro-1-methyl-ethyl)-phenyl]-2H-isoquinolin-1-one], the results for the IC50 in experiment [2] and in experiment [4] were 300 to 3000 nM and under 300 nM, respectively. Besides, the EC50 in experiment [3] was 300 to 3000 nM.

Regarding `Cn1cc(-c2ccc(-c3cc4cnccc4c(=O)[nH]3)cc2)cn1` [Compound A19, 3-[4-(1-Methyl-1H-pyrazol-4-yl)-phenyl]-2H-[2,6]naphthyridin-1-one], the IC50 in experiment [2] and in experiment [4] was 300 to 3000 nM throughout.

In the case of `CC1(c2ccc(-c3cc4ccc(F)cc4c(=O)[nH]3)cc2)CCCO1` (stereo not drawn) [Compound A21, 7-fluoro-3-[4-(2-methyltetrahydrofuran-2-yl)phenyl]-2H-isoquinolin-1-one], the figures for the half-maximal inhibitory concentration (IC50) in experiment [2] and in experiment [4] were 300 to 3000 nM and under 300 nM, respectively. Moreover, in experiment [3], the EC50 was in the range of 300 to 3000 nM.

For the compound `CC(C)(O)c1ccc(-c2cc3ccc(Cl)cc3c(=O)[nH]2)cc1` [Compound A25, 7-chloro-3-[4-(1-hydroxy-1-methyl-ethyl)phenyl]-2H-isoquinolin-1-one], the figures for the IC50 in experiment [2] and in experiment [4] were 300 to 3000 nM and under 300 nM, respectively. In addition, the EC50 in experiment [3] was in the range of 300 to 3000 nM.

As for `Cc1ccc(-c2cc3c(C(F)(F)F)cccc3c(=O)[nH]2)cc1` [Compound A30, 3-(p-tolyl)-5-(trifluoromethyl)-2H-isoquinolin-1-one], the IC50 was in the range of 3000 to 50000 nM in experiment [2] and 300 to 3000 nM in experiment [4].

In the case of `Cn1cc(-c2ccc(-c3cc4ccc(Cl)cc4c(=O)[nH]3)cc2)cn1` [Compound A32, 7-chloro-3-[4-(1-methyl-1H-pyrazol-4-yl)-phenyl]-2H-isoquinolin-1-one], the IC50 in experiment [2] is 300 to 3000 nM; in experiment [4], under 300 nM. In addition, the EC50 in experiment [3] is 300 to 3000 nM.

Regarding `Oc1nc(-c2ccc(C(F)(F)F)cc2)nc2c1CSCC2` [XAV939], in experiment [5], the “growth of DLD-1-cancer cells” value is “inhibits growth”.
